Source: patent US10759740B2, “Antibacterial agents” (Rutgers, The State University of New Jersey, priority 2016, dated 2020)

Assays:
[1] = test system: Salmonella enterica serovar typhimurium; assay: Broth microdilution assay (MIC); format: cell-based; settings: BHI broth, 37° C., 24 h, no visible growth
Protocol: (§1) From the frozen stock (−80° C.), bacteria were inoculated into brain-hear infusion (BHI) agar (Becton Dickinson, Franklin Lakes, N.J.) and propagated under aerobic conditions at 37° C. for 24 h. After the incubation, one colony of each bacterial strain was transferred to BHI broth (Becton Dickinson, Franklin Lakes, N.J.) and sub-cultured at least twice into BHI before being used in experiments.
(§2) The minimal inhibitory concentration (MIC) of CAms were identified using a broth microdilution assay modified from previous studies. Briefly, the stock solutions of CAMs were first prepared by dissolving in double-distilled water (ddH2O) and then diluted in BHI broth at pre-determined concentrations. Further serial 2-fold dilutions were performed in a 96-well microplate (Becton Dickinson, Franklin Lakes, N.J.) with BHI broth. The inoculum concentration was adjusted to 5×10^6 CFU/mL with ultraviolet-visible (UV-vis) spectroscopy at 600 nm. An equal volume (100 μL) of bacterial suspension was added to each microplate well with a final volume of 200 μL. Plates were incubated at 37° C. for 24 h under aerobic conditions. The lowest CAm concentration that yielded no visible growth was recorded as the MIC. Cetyltrimethylammonium bromide (CTAB), a cationic amphiphile, served as a positive control that could mimic the proposed bactericidal mechanism of the newly synthesized tartaric acid-based compounds.
(§3) CAms were evaluated against five selected pathogenic microorganisms, including Gram-positive bacteria (i.e., S. aureus and L. monocytogenes) and Gram-negative bacteria (i.e., E. coli, S. typhimurium, and P. aeruginosa), using a turbidity-based microdilution method. MICs were taken as the lowest concentrations that inhibited the visible bacterial growth.

[2] = test system: Escherichia coli O157:H7; assay: Broth microdilution assay (MIC); format: cell-based; settings: BHI broth, 37° C., 24 h, no visible growth
Protocol: as §1, §2
as §3, with “growth. […] The higher MIC values for the Gram-negative bacteria could be attributed to the presence of an additional lipopolysaccharide layer, which forms a hydrophilic barrier that could prevent penetration of the highly hydrophobic CAms.” for “growth.”

[3] = test system: Staphylococcus aureus ATCC 13565; assay: Broth microdilution assay (MIC); format: cell-based; settings: BHI broth, 37° C., 24 h, no visible growth
Protocol: as §1, §2
as §3, with “growth. […] The higher MIC values for the Gram-negative bacteria could be attributed to the presence of an additional lipopolysaccharide layer, which forms a hydrophilic barrier that could prevent penetration of the highly hydrophobic CAms.” for “growth.”

[4] = test system: G. vaginalis biofilm formation; assay: Minimum biofilm inhibition concentration (MIC-B), crystal violet; format: cell-based, Gardnerella vaginalis; settings: 48 h, vs untreated control, FIG. 7
Protocol: The MIC-B50 of an antimicrobial is defined as the lowest concentration of the antimicrobial that inhibits 50% of treated biofilm compared to the untreated one (control), while MIC-B90 was defined as the minimum biofilm inhibitory concentration that inhibits 90% (Sandoe et al., 2006. J Antimicrob Chemother 57:767-770). G. vaginalis cells were grown overnight in sBHI broth anaerobically at 37° C. The overnight culture was diluted in BHIG broth 1:100 (v:v) to achieve ˜10^6 CFU/ml for the biofilm inhibition assay. The CAms were diluted twofold with BHIG into a 96-well tissue culture microplate (Falcon, Corning Incorporated, Corning, N.Y., USA) with a final volume of 100 μl in each well. Aliquots of 100 μl of diluted cell suspensions at 10^6 CFU/ml were added separately to different concentrations of CAms in a 96-well tissue culture microplate. The microplate was incubated for 48 h at 37° C. under anaerobic conditions. After incubation, the number of non-adherent bacterial cells was counted using a spot plate method and compared with the number of cells of the non-treated control. Then, the intact biofilm was stained with 0.1% crystal violet.
This method was performed as described by Borucki et al. with minor modifications (Borucki et al., 2003. Appl Environ Microbiol 69:7336-7342). Briefly, after counting the non-adherent cells, the biofilm was fixed at 60° C. for 60 min. in an inverted position using an incubator (New Brunswick Scientific Co., Inc., NJ, USA). In each well, 125 μl of 0.1% crystal violet was added and left at room temperature for 20 min. Each well was then rinsed three to four times with 200 μl of ddH2O and left for 15 min. to dry at room temperature. To solubilize the biofilm-stained CV, 200 μl of 95% ethanol in water was added and the microplate was incubated at 4° C. for 30 min. One hundred microliter samples of solubilized CV were transferred to a new flat-bottomed 96-well microplate. The absorbance of each sample was measured using a plate reader at 595 nm (Model 550, Bio-Rad Laboratories, Hercules, Calif., USA).

Row | Compound | MIC S. typhimurium (G−) [1] [mg/L] | MIC E. coli (G−) [2] [mg/L] | MIC S. aureus (G+) [3] [mg/L] | MIC-B: concentration preventing 50% or >50% of biofilm formation [4] [µM]
1 | CCCCCCCCCCOC(C(=O)NCCN)C(OCCCCCCCCCC)C(=O)NCCN.Cl.Cl (stereo not drawn) [5b] | 3.9 | 3.9 | 0.95 | 1.6
2 | CCCCCCCC(=O)OC(C(=O)NCCN)C(OC(=O)CCCCCCC)C(=O)NCCN.Cl.Cl (stereo not drawn) [8a] | 62.5 | 62.5 | 31.2 | 7.2
3 | CCCCCCCCCC(=O)OC(C(=O)NCCN)C(OC(=O)CCCCCCCCC)C(=O)NCCN.Cl.Cl (stereo not drawn) [8b] | 3.9 | 3.9 | 1.9 | 3.2
